Several values for one entry are separate records, joined by “and”; a condition that tells them apart may be missing. Equal values may be shown once. Entries after “also recorded” stand apart in the source; their conditions may differ. Marks after values point to notes of the source that are not given here.
How the values were obtained:
[1] = animal studies; doses approximately equivalent to the proposed human dose; cited from earlier work
[2] = tested on: term and late preterm subjects with hyperbilirubinemia; assay: Phase 2b trial: hematology and chemistry laboratory tests (platelet counts); format: in vivo, human; settings: for Platelet counts (mean), Delta: baseline to 48 hours
Source text: (§1) Safety measurements included adverse events (AEs), hematology and chemistry laboratory tests, vital sign measurements, physical examinations, dermatological assessments, hearing assessments, ophthalmological assessments, neurological assessments, and quantitative electrocardiograms (ECGs).
(§2) All other safety endpoints (vital sign measurements, hematology and chemistry laboratory tests, physical examination results, ECG results, etc.) were summarized by treatment group and visit. In addition, shift tables were generated for laboratory results comparing postbaseline results with baseline. Similar shift tables were generated for results of vital sign measurements.

[3] = tested on: term and late preterm subjects with hyperbilirubinemia; assay: Phase 2b trial: vital signs, physical, neurological, audiology and ophthalmological examinations; format: in vivo, human
Source text: as §1, §2

[4] = tested on: term and late preterm subjects with hyperbilirubinemia; assay: Phase 2b trial: dermatological assessment (rash); format: in vivo, human
Source text: In some embodiments, dermatological examinations comprise the identification of photosensitive reactions if any. Photosensitive reaction may occur with metalloporphyrins and broad spectrum light. Photosensitive reactions include skin rashes.
as §1

[5] = tested on: term and late preterm subjects with hyperbilirubinemia; assay: Phase 2b trial: adverse events; format: in vivo, human
Source text: as §1
Safety population: Defined as all subjects who were enrolled in the clinical study and received IMP. Subjects were summarized according to the treatment received.
Analysis of Safety Parameters: Descriptive statistical methods were used to summarize safety parameters based on the safety population. All treatment-emergent adverse events (TEAEs) were summarized. Tabular summaries were also presented for all TEAEs considered potentially related to the IMP, TEAEs by intensity, serious adverse events (SAEs), and AEs leading to discontinuation.

[6] = 4.5 mg dose, baseline to 48 hours post dose

tin IV mesoporphyrin IX dichloride [Stannsoporfin]
effects on ECG, central nervous system, cardiovascular, pulmonary and renal functions [1]: no biologically significant effects
Platelet counts (mean) ([2]; 1.5 mg/kg IM, 48 hours): 234.000
Platelet counts (mean) ([2]; 1.5 mg/kg IM, Day 14): 477,000
Platelet counts (mean), Delta ([2]; 1.5 mg/kg IM): −31,000
Platelet counts (mean) ([2]; 3.0 mg/kg IM, 48 hours): 220,000
Platelet counts (mean) ([2]; 3.0 mg/kg IM, Day 14): 453,000
Platelet counts (mean), Delta ([2]; 3.0 mg/kg IM): −43,000
Platelet count, individual subjects, % Change [2, 6]: 68.6% and 47.1% and 60.8% and 2.9% and 8.4% and 41.0%
Platelet count, individual subjects, Delta [2, 6]: −153,000 and −113,000 and −141,000 and −11,000 and −22,000 and −128,000
Platelet counts (mean) ([2]; 4.5 mg/kg IM, 48 hours): 180,000
Platelet counts (mean) ([2]; 4.5 mg/kg IM, Day 14): 441,000
Platelet counts (mean), Delta ([2]; 4.5 mg/kg IM): −85,000
Platelet count, individual subjects ([2]; 4.5 mg/kg dose, 48 hours post dose (n = 6)): 70,000* and 127,000† and 91,000** and 368,000 and 240,000 and 184,000†
platelets at 48 hours ([2]; 4.5 mg/kg, all subjects, normalized by Day 14): moderate drops in platelets
Chemistries, liver function tests and renal function tests ([2]; 1.5 to 4.5 mg/kg IM): normal
Platelet counts from baseline to 48 hours after administration ([2]; all stannsoporfin doses, placebo remained stable): decreased
average platelet counts by day 14 ([2]; all test groups): returned to the normal range
effect on vital signs (blood pressure, pulse, respiratory rate, temperature) ([3]; 1.5 to 4.5 mg/kg IM, preliminary data): no effect
mean pulse ([3]; 45 minutes after treatment, no longer observed at 1.5 hours): decrease in mean pulse
audiology examinations ([3]; screening, 48 hours after treatment/hospital discharge, or early termination, all subjects): normal
Rash and PT, n (% of those with a rash) ([4]; 1.5 mg/kg IM): 2 (66.7%)
Subjects with any rash, n (%) ([4]; 1.5 mg/kg IM): 3 (17.6%)
types of rashes observed ([4]; 1.5 mg/kg IM): Contusion; also recorded: Diaper Dermatitis; also recorded: PT Induced rash*; also recorded: Desquamation; also recorded: Contact Dermatitis
Rash and PT, n (% of those with a rash) ([4]; 3.0 mg/kg IM): 3 (37.5%)
Subjects with any rash, n (%) ([4]; 3.0 mg/kg IM): 8 (44.4%)
types of rashes observed ([4]; 3.0 mg/kg IM): Neonatal Acne; also recorded: Erythema; also recorded: Seborrhea; also recorded: Diaper rash; also recorded: Flushing
Rash and PT, n (%) ([4]; 4.5 mg/kg IM): 1 (12.5%)
Subjects with any rash, n (%) ([4]; 4.5 mg/kg IM): 1 (13.3%)
types of rashes observed ([4]; 4.5 mg/kg IM): Erythema **
# of subjects one AE, n (%) ([5]; 1.5 mg/kg IM): 8 (47.1%)
AE Anal Abscess: subjects, n (%) ([5]; 1.5 mg/kg IM): 0
AE Anemia: subjects, n (%) ([5]; 1.5 mg/kg IM): 0
AE Bradycardia: subjects, n (%) ([5]; 1.5 mg/kg IM): 0
AE CO2 decreased: subjects, n (%) ([5]; 1.5 mg/kg IM): 0
AE CRP increased: subjects, n (%) ([5]; 1.5 mg/kg IM): 1 (5.9%)
AE Contusion: subjects, n (%) ([5]; 1.5 mg/kg IM): 1 (5.9%)
AE Depressed level consciousness: subjects, n (%) ([5]; 1.5 mg/kg IM): 0
AE Diaper dermatitis: subjects, n (%) ([5]; 1.5 mg/kg IM): 2 (11.8%)
AE Erythema toxicum: subjects, n (%) ([5]; 1.5 mg/kg IM): 0
AE Erythema: subjects, n (%) ([5]; 1.5 mg/kg IM): 0
AE Flushing: subjects, n (%) ([5]; 1.5 mg/kg IM): 0
AE Hemangioma: subjects, n (%) ([5]; 1.5 mg/kg IM): 1 (5.9%)
AE Hemoglobin increased: subjects, n (%) ([5]; 1.5 mg/kg IM): 0
AE Hyperbilirubinemia: subjects, n (%) ([5]; 1.5 mg/kg IM): 2 (11.8%)
AE Jaundice: subjects, n (%) ([5]; 1.5 mg/kg IM): 5 (29.4%)
AE Leukocytosis: subjects, n (%) ([5]; 1.5 mg/kg IM): 0
AE Meningitis: subjects, n (%) ([5]; 1.5 mg/kg IM): 0
AE Oral Candidiasis: subjects, n (%) ([5]; 1.5 mg/kg IM): 0
AE Rash neonatal: subjects, n (%) ([5]; 1.5 mg/kg IM): 0
AE Rash papular: subjects, n (%) ([5]; 1.5 mg/kg IM): 0
AE Rash: subjects, n (%) ([5]; 1.5 mg/kg IM): 1 (5.9%)
AE Seborrhoeic dermatitis: subjects, n (%) ([5]; 1.5 mg/kg IM): 0
AE Serum Glucose decreased: subjects, n (%) ([5]; 1.5 mg/kg IM): 0
AE Serum sodium increased: subjects, n (%) ([5]; 1.5 mg/kg IM): 0
AE Skin exfoliation: subjects, n (%) ([5]; 1.5 mg/kg IM): 1 (5.9%)
AE Thrombocytopenia: subjects, n (%) ([5]; 1.5 mg/kg IM): 0
AE Umbilical Hernia: subjects, n (%) ([5]; 1.5 mg/kg IM): 0
AE Vomiting: subjects, n (%) ([5]; 1.5 mg/kg IM): 0
Total AEs ([5]; 1.5 mg/kg IM, N = 17): 17
# of subjects one AE, n (%) ([5]; 3.0 mg/kg IM): 10 (55.6%)
AE Anal Abscess: subjects, n (%) ([5]; 3.0 mg/kg IM): 1 (5.6%)
AE Anemia: subjects, n (%) ([5]; 3.0 mg/kg IM): 1 (5.6%)
AE Bradycardia: subjects, n (%) ([5]; 3.0 mg/kg IM): 0
AE CO2 decreased: subjects, n (%) ([5]; 3.0 mg/kg IM): 1 (5.6%)
AE CRP increased: subjects, n (%) ([5]; 3.0 mg/kg IM): 0
AE Contusion: subjects, n (%) ([5]; 3.0 mg/kg IM): 0
AE Depressed level consciousness: subjects, n (%) ([5]; 3.0 mg/kg IM): 0
AE Diaper dermatitis: subjects, n (%) ([5]; 3.0 mg/kg IM): 1 (5.6%)
